Source: PubChem BioAssay AID449732 (Southern Research Specialized Biocontainment Screening …, 2010)

What follows are molecules tested on RSV titer reduction in cells, log virus titer (assay: RSV replication inhibition by virus titer reduction, cell-based, selected compounds (AID 449732)). Conditions: hits give high values.

| Structure (SMILES) | max log titer decrease |
| --- | --- |
| CCN(c1ccccc1)S(=O)(=O)c1ccc(Cl)c(NC(=O)CSc2n[nH]c(N)n2)c1 | 8.6 |
| CCOC(=O)C1=C(NC(=S)NC(=O)c2ccccc2)c2ccccc2CC1C(C)C (stereo unspecified) | 9.13 |
| O=C(NCc1ccco1)c1ccc(Cn2c(=O)c3ccccc3n(Cc3ccc(Cl)cc3)c2=O)cc1 | 8.58 |
| c1ccc(N2CCN(Cc3nc4ccccc4[nH]3)CC2)nc1 | 4.6 |
| O=C(CCNC(=O)c1ccc(Cl)cc1)NC1CCCc2ccccc21 (stereo unspecified) | 8.6 |
| O=C(c1cc2nc(-c3ccccc3)cc(-c3ccccc3)n2n1)N1CCC2(CC1)OCCO2 | 8.03 |
| C#CCn1c(S(=O)(=O)Cc2ccc(F)cc2)nc(-c2ccccc2)c1-c1ccccc1 | 3.37 |
| Cc1ccc2c(c1)cc(C(=O)NCc1ccccc1)n2C | 8.03 |
| CCOC(=O)c1c(-c2cccc(C)c2)csc1NC(=O)c1c(-c2ccccc2)noc1C | 8.03 |
| COc1cccc(C(=O)N(Cc2nc(-c3cccc(C)c3)no2)C(C)C)c1OC | 8.03 |
| CCOc1ccc2nc(NC(=O)C(CCSC)NS(=O)(=O)c3cccs3)sc2c1 (stereo unspecified) | 8.58 |
| COC(=O)C1=C(C)N(Cc2ccccc2)C(=O)NC1c1ccccc1 (stereo unspecified) | 9.13 |
| O=C(Nc1ccc(N2CCCCC2)c(Cl)c1)c1cccnc1 | 9.13 |
| Cn1c(C(=O)NCc2ccccc2)cc2oc3ccccc3c21 | 8.58 |
| CCOC(=O)c1ccc(NC(=S)N2CCSC2c2ccc(Br)cc2)cc1 (stereo unspecified) | 8.03 |
| CCc1nc(SCC(=O)N2c3ccccc3CC2C)c2c(C)c(C)sc2n1 (stereo unspecified) | 9.13 |
| COc1cccc(CNC(=O)c2cc3oc4ccccc4c3n2C)c1OC | 8.58 |
| Cc1ccc(-c2nc3cccnc3s2)cc1NS(=O)(=O)c1cccs1 | 9.13 |
| COc1ccc(C(c2c(NC(=O)c3ccco3)sc(C)c2C)N2CCOCC2)cc1OC (stereo unspecified) | 8.58 |
| Cc1sc2nc(C3CC3)nc(SCC(=O)N3c4ccccc4CC3C)c2c1C (stereo unspecified) | 9.13 |
| COc1ccccc1CNC(=O)C1CCN(S(=O)(=O)c2cccc3nonc23)CC1 | 8.58 |
| O=C(CCNC(=O)c1ccc(Br)cc1)NC1CCCc2ccccc21 (stereo unspecified) | 8.6 |
| Cc1ccc(-n2c(SCC(=O)Nc3ncc(Cl)cc3Cl)nc3ccccc32)cc1 | 8.6 |
| COC(=O)c1ccc(NC2c3ncccc3C(=O)N2Cc2cccs2)cc1 (stereo unspecified) | 5.08 |
| O=C(O)c1cccnc1Nc1ccc(Cl)cc1 | 9.13 |
| Cc1c(NC(=O)COC(=O)c2cc(-c3ccc(-c4ccccc4)cc3)nc3ccccc23)c(=O)n(-c2ccccc2)n1C | 8.6 |

| Structure (SMILES) | max log titer decrease |
| --- | --- |
| CCOC(=O)c1ccc2[nH]c3c(c2c1)CN(C)CC3 | 9.13 |
| Cc1cccc(NC(=O)CSc2nc3ccccc3nc2N2CCCCC2)c1 | 9.13 |
| O=[N+]([O-])c1ccccc1S(=O)(=O)Nc1cccc(-c2ccc(N3CCCC3)nn2)c1 | 9.13 |
| CC1Cc2ccccc2N1S(=O)(=O)c1cccc(C(=O)N2CCN(c3ncccn3)CC2)c1 (stereo unspecified) | 8.6 |
| COc1ccc(N(CC(=O)NC2CCCCC2)C(=O)c2ccc(C)s2)c(OC)c1 | 5.13 |
| Cc1nc2ccccc2nc1Nc1cccc(Cl)c1 | 8.03 |
| COc1ccccc1NCC(=O)Nc1cc(S(=O)(=O)N2CCOCC2)ccc1N1CCOCC1 | 4.6 |
| CCOc1ccc(CNC(=O)c2cc3oc4ccccc4c3n2C)cc1 | 8.58 |
| Cc1cccc(-n2c(SCC(=O)Nc3ncc(Cl)cc3Cl)nc3ccccc32)c1 | 8.6 |
| CC(C)(C)C(=O)Nc1sc(-c2ccccc2)cc1C(=O)O | 5.66 |
| Cc1ccc(CSCC(=O)Nc2ccccc2C(=O)O)cc1 | 8.03 |
| COc1ccc(C(=O)Nc2nc3c(s2)CCCC3)cc1S(=O)(=O)N1CCCc2ccccc21 | 8.6 |
| COCCCNC(=O)c1ccc(Cn2c(=O)c3ccccc3n(Cc3ccc(C)cc3)c2=O)cc1 | 8.58 |
| CSc1ncccc1C(=O)Nc1nc(C(C)(C)C)cs1 | 5.6 |
| CN(C)C(=O)COC(=O)c1ccccc1Nc1ccc(SC(F)F)cc1 | 8.6 |
| Cc1ccc(OCCn2c(C3CC(=O)N(Cc4ccccc4)C3)nc3ccccc32)cc1 (stereo unspecified) | 8.6 |
| O=C(O)C1CC=CCC1C(=O)Nc1ccc(S(=O)(=O)N2CCCc3ccccc32)cc1 (stereo unspecified) | 8.58 |
| O=S(=O)(c1cccc(-c2csc(-c3ccccc3)n2)c1)N1CCOCC1 | 8.58 |
| O=C(CCCOc1ccc(Cl)cc1Cl)Nc1ccccc1C(=O)O | 8.03 |
| CSc1nnc(Cn2c(=O)sc3ccccc32)n1-c1cccc(Cl)c1 | 5.47 |
| c1ccc(-c2nn3c(Cn4cnc5ccccc54)nnc3s2)cc1 | 8.58 |
| O=C(NC(=S)Nc1ccccc1C(=O)O)c1ccc(-c2ccc(Br)cc2)o1 | 8.03 |
| c1csc(-c2nn3c(Cn4cnc5ccccc54)nnc3s2)c1 | 5.14 |
| Cc1ccc(NC(=O)C2CCCN2S(=O)(=O)c2cccc3cccnc23)c(C)c1 (stereo unspecified) | 8.58 |
| CCCC(c1nnnn1CC(=O)OCC)N(Cc1cc2c(C)cc(C)cc2[nH]c1=O)C1CCCC1 (stereo unspecified) | 9.13 |
